Test [1] relates to activated mouse tEnd.1 cells (E-selectin mediated adhesion). Nature of the test: Inhibition of adhesion of SM colonic carcinoma cells to IL-1β-activated mouse tEnd.1 endothelial cell monolayers. Type of test: cell-based. As to conditions: for inhibition of adhesion of SM cells to activated mouse tEnd.1 cells: IL-1β-activated tEnd.1 monolayers, result in words (FIG. 4, 5A, 5B). The text has this:
The mouse endothelioma cell lines, eEnd.2, sEnd.1, tEnd.1, and bEnd.4 were kindly provided by Dr. R. Lindsay Williams at the Ludwig Institute for Cancer Research, […], Austria. These cell lines, originally derived from a subcutaneous (sEnd.1), thymic (tEnd.1), embryonal (eEnd.2), and brain (bEnd.4) hemangliomas produced in transgenic mice expressing polyoma middle T antigen (Williams et al., Cell 52:121-131 (1988)). The cells were maintained in Dulbecco's modified Eagle's medium containing 10% fetal calf serum. Mouse endothelioma cell lines were cultured in 96-well tissue culture plates and activated with 10 units/ml IL-1β (Sigma) and then washed with Dulbecco's modified Eagle's medium containing 5% fetal calf serum before the colonic carcinoma cells were added. As the control, non-activated mouse endothelial cells were prepared identically and used in parallel for the adhesion assays. The adhesion and inhibition of the adhesion by soluble lamp-1 and soluble leukosialin were carried out exactly as described previously (Sawada et al., supra).
Inhibition by sialyl Le^x-positive glycolipid, NeuNAcα2→3Galβ1→4-(Fucα1→3)GlcNAcβ1→3Galβ1→4Glc→Cer was tested after the glycolipid was incorporated into liposomes (Phillips et al., Science 250:1130-1132 (1990)). Paragloboside, NeuNAcα2→3Galβ1→4GlcNAcβ1→3Galβ1→4Glc→Cer was used as a control glycolipid. Sialyl Le^x glycolipid (Kameyama et al., Carbohydr. Res. 209:C1-C4 (1991)) and paragloboside were kindly provided by Drs. Akira Hasegana, Gifu University, Japan, and Michiko Fukuda at this institute, respectively. In order to determine if sialyl Le^x structure on the human colonic cells are recognized by mouse endothelial cells, the adhesion was assayed after the colonic cells were preincubated with anti-sialyl Le^x antibody (CSLEX, IgM) or mouse anti-Le^x monoclonal antibody (anti-PMN-6, IgM). The anti-PMN-6 antibody (Ball and Fanger, Blood 61:456-463 (1983)) was kindly provided by Dr. Ball of the Dartmouth Medical School.
First, the binding of the cell line with the highest adhesion efficiency was tested in the presence of a sialyl Le^x containing glycolipid. SM cells were subjected to adhesion to activated mouse tEnd.1 cells as described in Example IV (and FIG. 3) (open bar), or as in FIG. 3 after pretreatment of the activated monolayers with liposomes containing sialyl Le^x glycolipid (hatched bars), or after pretreatment with liposomes containing the control glycolipid paragloboside (cross-hatched bar). The amount of glycolipid is shown in μg/ml at the x axis. The adhesion to non-activated mouse endothelial cells is shown by the closed bar. Data correspond to the fraction of applied cells still adherent to tEnd.1 cells after washing and are mean and standard deviation from four replicate assays.
The adhesion of SM cells to activated mouse tEnd.1 cells was tested for inhibition by soluble lamp-1 (FIG. 5A) or soluble leukosialin (FIG. 5B). The inhibition by soluble lamp-1 or soluble leukosialin derived from sialyl Le^x positive CHO cells is shown by hatched bars.
Inhibition by control soluble lamp-1 or control soluble leukosialin, which were derived from sialyl Le^x negative CHO cells, is shown by cross-hatched bars. The open bar represents the control without the inhibitors while the closed bar represents the adhesion to unstimulated mouse tEnd.1 monolayers. The experiments shown in FIGS. 5A and 5B were carried out at the same time.

In test [2] the target is mouse E-selectin on IL-1β-activated mouse tEnd.1 endothelioma cells (mouse) (UniProt Q00690). Nature of the test: cell-based or functional assay.
Sequence of UniProt Q00690 (Q00690 22-612): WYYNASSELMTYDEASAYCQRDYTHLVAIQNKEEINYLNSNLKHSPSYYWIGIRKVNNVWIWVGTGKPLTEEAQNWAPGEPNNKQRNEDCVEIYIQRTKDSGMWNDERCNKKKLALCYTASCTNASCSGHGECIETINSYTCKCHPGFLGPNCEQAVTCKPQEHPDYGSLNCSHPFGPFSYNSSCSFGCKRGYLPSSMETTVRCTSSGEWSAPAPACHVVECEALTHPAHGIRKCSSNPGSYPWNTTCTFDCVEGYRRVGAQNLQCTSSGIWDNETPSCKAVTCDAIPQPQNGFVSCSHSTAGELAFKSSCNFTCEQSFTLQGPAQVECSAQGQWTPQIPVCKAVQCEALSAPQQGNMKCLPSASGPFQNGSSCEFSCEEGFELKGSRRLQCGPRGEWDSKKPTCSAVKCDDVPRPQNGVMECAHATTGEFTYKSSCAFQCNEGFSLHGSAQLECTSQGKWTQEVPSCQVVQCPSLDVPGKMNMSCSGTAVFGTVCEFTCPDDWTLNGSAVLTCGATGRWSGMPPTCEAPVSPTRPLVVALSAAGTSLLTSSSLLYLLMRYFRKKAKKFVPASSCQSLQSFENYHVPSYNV
The test system of another test is HUVEC. The note with it: as described in Sawada et al. (1993); cited from earlier work.

In the case of “NeuNAcα2→3Galβ1→4-(Fucα1→3)GlcNAcβ1→3Galβ1→4Glc→Cer [sialyl Le^x glycolipid, reference compound]”, the “inhibition of adhesion of SM cells to activated mouse tEnd.1 cells” value (shortened to “inhibition of adhesion of SM cells”) in test [1] (SM cells) is reported as “inhibited by liposomes containing sialyl Le^x glycolipid in a dose-dependent manner”. For the same molecule, the “inhibition of adhesion to mouse cells compared with human endothelial cells” value in test [1] (same carcinoma cells, same conditions, mouse vs human endothelial cells) is reported as “not as effective as the inhibition of the same carcinoma cells to human endothelial cells”.

For “NeuNAcα2→3Galβ1→4GlcNAcβ1→3Galβ1→4Glc→Cer [sialyl paragloboside, reference compound]”, the “inhibition of adhesion of SM cells” value in test [1] (SM cells) was “did not inhibit the adhesion even at high concentrations”.

“sialyl-Le^x-negative leukosialin: soluble leukosialin IgG chimeric protein lacking the sialyl-Le^x determinant, from control CHO cells without Fuc-TIII vector [reference compound]”: the “inhibition of adhesion of SM cells” value was “inhibited the binding minimally” in test [1] (SM cells) and “inhibited binding only minimally” in test [1] (SM cells, listed as soluble sialyl Le^x negative leukosialin).

For the molecule “sialyl-Le^x-positive leukosialin: soluble leukosialin fused to human IgG1 hinge plus constant region, from CHO cells expressing core 2 GlcNAc-transferase and Fuc-TIII; carries sialyl Le^x”, the “inhibition of adhesion of SM cells” value is “inhibited the adhesion of SM cells to mouse tEnd.1 cells in a concentration-dependent manner” in test [1] (SM cells) and “inhibited the adhesion of SM cells to mouse tEnd.1 cells in a concentration dependent manner” in test [1] (SM cells, listed as sialyl Le^x positive leukosialin). Also, in test [1] (SM cells, activated tEnd.1, concentration not stated in text (FIG. 5B)), the “binding of SM cells to tEnd.1 cells, relative to control levels” value was 30 % of control levels.

As for “soluble chimeric leukosialin-IgG protein, sialyl Le^x positive (from CHO-leu.C2GnT cells transfected with pSRα.s-leu.IgG and pcDNAI-Fuc.TIII) (from UniProt P16150 20-252; P01857 99-330) (Fc fusion)”, the adhesion of SM cells to mouse tEnd.1 cells, percent of control (% of control levels) in test [2] was determined as 30.

B1: soluble lamp-1 containing the sialyl Le^x: soluble form of lysosomal membrane glycoprotein-1 from CHO cells co-transfected with Fuc-TIII vector; carries sialyl Le^x (protein)
chain: AMFMVKNGNGTACIMANFSAAFSVNYDTKSGPKNMTFDLPSDATVVLNRSSCGKENTSDPSLVIAFGRGHTLTLNFTRNATRYSVQLMSFVYNLSDTHLFPNASSKEIKTVESITDIRADIDKKYRCVSGTQVHMNNVTVTLHDATIQAYLSNSSFSRGETRCEQDRPSPTTAPPAPPSPSPSPVPKSPSVDKYNVSGTNGTCLLASMGLQLNLTYERKDNTTVTRLLNINPNKTSASGSCGAHLVTLELHSEGTTVLLFQFGMNASSSRFFLQGIQLNTILPDARDPAFKAANGSLRALQATVGNSYKCNAEEHVRVTKAFSVNIFKVWVQAFKVEGGQFGSVEECLLDENSM
As to B1, the “inhibition of binding of SP-pSRαlamp-1^H cells to HUVEC” value in the test on HUVEC is reported as “inhibited the binding of the SP-pSRαlamp-1^H to HUVEC”. In addition, the “inhibition of adhesion of SM cells” value in test [1] (SM cells) was “able to inhibit the adhesion of SM cells to activated mouse tEnd.1 cells in a dose-dependent manner”.

(Values after patent US6537553B1, “Leukosialin: Ig fusion proteins” (La Jolla Cancer Research Foundation, priority 1993, dated 2003).)
